Assay results from patent publication US20200397795A1, “PROPHYLACTIC TREATMENT OF VENOUS THROMBOEMBOLISM” (JANSSEN PHARMACEUTICALS, INC., priority 2019, published 2020).

Test system: venous thromboembolism (VTE) in patients hospitalized for acute medical illness
Experiment: MAGELLAN (Study 1): efficacy of oral rivaroxaban 10 mg OD 35 days vs sc enoxaparin 40 mg OD 10 days then placebo
Type: in vivo
Experimental: The objective of Study 1 (MAGELLAN or MAGELLAN Study) was to compare efficacy and safety of venous thromboembolism (VTE) prophylaxis with oral rivaroxaban 10 mg once daily administered for 35±4 days (hereafter referred to as 35 days or Day 35) to subcutaneous enoxaparin 40 mg once daily (OD) administered for 10±4 days (hereafter referred to as 10 days or Day 10) in men and women aged 40 years or above, who have been hospitalized for a medical illness.
Diagnosis and main criteria for inclusion in Study 1 was men and women 40 years or above and at risk for VTE being hospitalized for acute medical illness conditions, including: heart failure (New York Heart Association [NYHA] class III or IV); active cancer (e.g., admitted for chemotherapy or for the treatment of a complication of active cancer); acute ischemic stroke; acute infectious and inflammatory diseases, including acute rheumatic diseases; and acute respiratory insufficiency. Also at least one additional risk factor for VTE, including: severe varicosis (varicosities); chronic venous insufficiency; history of cancer; history of deep vein thrombosis (DVT) or pulmonary embolism (PE); history of heart failure (NYHA class III or IV); thrombophilia (hereditary or acquired); recent major surgery (6-12 weeks); recent serious trauma (6-12 weeks); hormone replacement therapy; advanced age greater than or equal to 75 years; morbid obesity (body mass index (BMI) 35 kg/m^2 or higher); and acute infectious disease contributing to hospitalization.
The study was conducted in a prospective, randomized, double-blind, double dummy, active comparator-controlled, multicenter and multinational design. There were 8101 subjects were randomized at 556 study centers in 52 countries to one of the two treatment groups. Of the 8101 randomized subjects, 4050 were randomized to active rivaroxaban and 4051 were randomized to active enoxaparin.
Primary Endpoints: The primary efficacy variable was a composite of the number of events of: asymptomatic proximal DVT in lower extremity detected by mandatory bilateral lower extremity venous ultrasonography; symptomatic DVT in lower extremity, proximal or distal; symptomatic, non-fatal PE; and VTE-related death defined as either a well-documented fatal PE, or sudden death with no other plausible explanation. The two primary efficacy endpoints were (i) test of superiority at Day 35 (Days 29-41, inclusive) and (ii) test of non-inferiority at Day 10 (Days 6-15, inclusive).
Secondary Endpoints: The first major secondary efficacy endpoint was defined as a composite of the test of superiority at Day 35 with component of VTE-related death substituted by all-cause mortality, up to Day 35. The second major efficacy secondary efficacy endpoint was the test for superiority at Day 10 using the same composite endpoint as the Day 10 non-inferiority test.
For both primary efficacy endpoints, the relative risk ratio (rivaroxaban/enoxaparin) with respect to the incidences of the primary efficacy endpoint was estimated based on a stratified estimator using Mantel-Haenszel weights (based on sample sizes by geographic region). The corresponding asymptotic 2-sided 95% confidence interval based on the approximation to the normal distribution was determined. Sensitivity analyses were performed for the primary efficacy endpoints.
The primary efficacy variable was a composite of the number of events of (1) asymptomatic proximal DVT in lower extremity detected by mandatory bilateral lower extremity venous ultrasonography; (2) symptomatic DVT in lower extremity, proximal or distal; (3) symptomatic, nonfatal PE; and (4) VTE-related death. […]

[1] = Day 10 + 5, PP Day 10 plus major and clinically relevant bleeds
[2] = Day 10 + 5, per protocol Day 10 analysis set
[3] = Day 10 + 5 up to Day 35 + 6, mITT (Day 10 to Day 35) analysis set
[4] = Day 10 + 5 up to Day 35 + 6, mITT (Day 10 to Day 35) analysis set, listed as rivaroxaban
[5] = Day 35 + 6, mITT Day 35 analysis set
[6] = Day 35 + 6, mITT Day 35 analysis set, listed as rivaroxaban
[7] = Day 35 + 6, mITT Day 35 plus major and clinically relevant bleeds
[8] = Day 35, mITT Day 35 analysis set
[9] = rivaroxaban-placebo phase (Day 10 to Day 35), mITT (Day 10 to Day 35)

## O=C(NC[C@H]1CN(c2ccc(N3CCOCC3=O)cc2)C(=O)O1)c1ccc(Cl)s1 [Rivaroxaban, 5-chloro-N-({(5S)-2-oxo-3-[4-(3-oxo-4-morpholinyl)phenyl]-1,3,oxazolidin-5-yl}methyl)-2-thiophenecarboxamide]
Day 10
  Major vascular events (CV death, acute myocardial infarction, or acute ischemic stroke), incidence: 1.0%
  Symptomatic VTE excluding VTE-related death, incidence: 0.5%
  Symptomatic VTE including death, incidence: 0.7%
[1]
  Net clinical benefit component: asymptomatic lower proximal deep vein thrombosis: 71 (2.4%)
  Net clinical benefit component: clinically relevant non-major bleeding: 51 (1.7%)
  Net clinical benefit component: death (pulmonary embolism): 3 (0.1%)
  Net clinical benefit component: major bleeding: 9 (0.3%)
  Net clinical benefit component: symptomatic deep vein thrombosis in lower extremity: 7 (0.2%)
  Net clinical benefit component: symptomatic non-fatal pulmonary embolism: 6 (0.2%)
  Net clinical benefit component: venous thromboembolism related death: 3 (0.1%)
  Net clinical benefit, any event, incidence: 134 (4.5%)
Day 10 + 5, PP Day 10 plus major and clinically relevant bleeds, listed as rivaroxaban
  Net clinical benefit, any event, incidence: 4.5%
[2]
  Asymptomatic proximal deep vein thrombosis in lower extremity, incidence: 71 (2.4%)
  Death (pulmonary embolism cannot be excluded), incidence: 3 (0.1%)
  Primary efficacy composite, any event, incidence: 78 (2.7%)
  Symptomatic deep vein thrombosis in lower extremity, incidence: 7 (0.2%)
  Venous thromboembolism related death, incidence: 3 (0.1%)
Day 10 + 5, per protocol Day 10 analysis set, listed as rivaroxaban
  Primary efficacy composite, any event, incidence: 2.7%
[3]
  Asymptomatic proximal deep vein thrombosis in lower extremity, incidence: 81 (2.1%)
  Death (pulmonary embolism cannot be excluded), incidence: 8 (0.3%)
  Death (pulmonary embolism), incidence: 1 (<0.1%)
  Symptomatic deep vein thrombosis in lower extremity, incidence: 3 (0.1%)
  Symptomatic non-fatal pulmonary embolism, incidence: 1 (<0.1%)
  Venous thromboembolism related death, incidence: 9 (0.3%)
Day 10 + 5 up to Day 35 + 6, mITT (Day 10 to Day 35) analysis set, rivaroxaban-placebo phase
  Primary efficacy composite, any event, incidence: 72 (2.5%)
Day 10 + 5 up to Day 35 + 6, mITT (Day 10 to Day 35) analysis set, rivaroxaban-placebo phase, listed as rivaroxaban
  Primary efficacy composite, any event, incidence: 2.5%
[4]
  Asymptomatic proximal deep vein thrombosis in lower extremity, incidence: 2.1%
  Venous thromboembolism related death, incidence: 0.3%
Day 10, PP Day 10 analysis set
  Relative risk (rivaroxaban/enoxaparin), primary efficacy composite: 0.968
  Relative risk reduction, primary efficacy composite: 3.25%
Day 10 PP, active cancer
  Relative risk vs enoxaparin, subgroup: 2.500
Day 10 PP, age subgroup 65 to <75 years
  Relative risk vs enoxaparin, subgroup: 1.88
Day 10 PP, complete immobilization >6 days post randomization
  Relative risk vs enoxaparin, subgroup: 0.671
Day 10 PP, complete immobilization post randomization 4-6 days
  Relative risk vs enoxaparin, subgroup: 1.75
Day 35
  Major vascular events, incidence: 1.8%
  Symptomatic VTE excluding VTE-related death, incidence: 0.6%
  Symptomatic VTE including death, incidence: 1.0%
[5]
  Asymptomatic proximal deep vein thrombosis in lower extremity, incidence: 103 (3.5%)
  Death (pulmonary embolism cannot be excluded), incidence: 18 (0.6%)
  Death (pulmonary embolism), incidence: 1 (<0.1%)
  Primary efficacy composite, any event, incidence: 131 (4.4%)
  Symptomatic deep vein thrombosis in lower extremity, incidence: 13 (0.4%)
  Symptomatic non-fatal pulmonary embolism, incidence: 10 (0.3%)
  Venous thromboembolism related death, incidence: 19 (0.6%)
[6]
  Asymptomatic proximal deep vein thrombosis in lower extremity, incidence: 3.5%
  Primary efficacy composite, any event, incidence: 4.4%
  Venous thromboembolism related death, incidence: 0.6%
[7]
  Net clinical benefit component: asymptomatic lower proximal deep vein thrombosis: 104 (3.4%)
  Net clinical benefit component: clinically relevant non-major bleeding: 124 (4.1%)
  Net clinical benefit component: death (pulmonary embolism cannot be excluded): 18 (0.6%)
  Net clinical benefit component: death (pulmonary embolism): 1 (<0.1%)
  Net clinical benefit component: major bleeding: 43 (1.4%)
  Net clinical benefit component: symptomatic deep vein thrombosis in lower extremity: 13 (0.4%)
  Net clinical benefit component: symptomatic non-fatal pulmonary embolism: 10 (0.3%)
  Net clinical benefit component: venous thromboembolism related death: 19 (0.6%)
  Net clinical benefit, any event, incidence: 286 (9.4%)
Day 35 + 6, mITT Day 35 plus major and clinically relevant bleeds, listed as rivaroxaban
  Net clinical benefit, any event, incidence: 9.4%
[8]
  Relative risk (rivaroxaban/enoxaparin), primary efficacy composite: 0.771
  Relative risk reduction, primary efficacy composite: 22.89%
Day 35, mITT Day 35 expanded
  Composite endpoint including all-cause mortality, incidence: 8.6%
  Relative risk, composite endpoint including all-cause mortality: 0.931
Day 35 mITT, active cancer
  Relative risk vs enoxaparin, subgroup: 1.340
Day 35 mITT, acute infectious and inflammatory disease
  Relative risk vs enoxaparin, subgroup: 0.657
Day 35 mITT, age subgroup 75 years
  Relative risk vs enoxaparin, subgroup: 0.624
Day 35 mITT, subjects in Western Europe (including Australia, New Zealand, Israel)
  Relative risk vs enoxaparin, subgroup: 0.5
Day 90
  All-cause mortality, incidence: 6.7%
  Major vascular events, incidence: 2.8%
  Symptomatic VTE excluding VTE-related death, incidence: 0.7%
  Symptomatic VTE including death, incidence: 1.7%
[9]
  Relative risk reduction, primary efficacy composite: 35.14%
  Relative risk, primary efficacy composite: 0.649
